According to PubChem BioAssay (NCI):
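Growth conditions: 96-well plates. Treatment: test compound, 48 hours, 5 concentrations. Analysis: linear interpolation between bracketing concentrations; unreached endpoints set to highest concentration. GI50: concentration for 50% inhibition of growth. TGI is the concentration that stops growth completely.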

Tests used:
Assay in all cases: DTP human tumour cell line panel, 48 h
HOP-92 NSCLC = system: HOP-92 NSCLC
UO-31 renal = system: UO-31 renal
NCI-H226 lung = system: NCI-H226 lung
SK-MEL-28 melanoma = system: SK-MEL-28 melanoma
HT29 colon = system: HT29 colon
NCI-H23 lung = system: NCI-H23 lung
K-562 leukemia = system: K-562 leukemia
M14 melanoma = system: M14 melanoma
MDA-MB-231 breast = system: MDA-MB-231 breast
COLO 205 colon = system: COLO 205 colon
MALME-3M melanoma = system: MALME-3M melanoma
HS 578T breast = system: HS 578T breast
HCT-116 colon = system: HCT-116 colon
786-0 renal = system: 786-0 renal
MCF7 breast = system: MCF7 breast
A498 renal = system: A498 renal
SF-268 CNS = system: SF-268 CNS
LOX IMVI melanoma = system: LOX IMVI melanoma
RPMI-8226 leukemia = system: RPMI-8226 leukemia
UACC-257 melanoma = system: UACC-257 melanoma
TK-10 renal = system: TK-10 renal
HCC-2998 colon = system: HCC-2998 colon
RXF 393 renal = system: RXF 393 renal
DU-145 prostate = system: DU-145 prostate
T-47D breast = system: T-47D breast
MOLT-4 leukemia = system: MOLT-4 leukemia
SK-OV-3 ovarian = system: SK-OV-3 ovarian
EKVX NSCLC = system: EKVX NSCLC
SW-620 colon = system: SW-620 colon
HCT-15 colon = system: HCT-15 colon
NCI/ADR-RES ovarian = system: NCI/ADR-RES ovarian
OVCAR-4 ovarian = system: OVCAR-4 ovarian
CAKI-1 renal = system: CAKI-1 renal
SK-MEL-2 melanoma = system: SK-MEL-2 melanoma
U251 CNS = system: U251 CNS
NCI-H522 lung = system: NCI-H522 lung
HL-60(TB) leukemia = system: HL-60(TB) leukemia
NCI-H460 lung = system: NCI-H460 lung
OVCAR-3 ovarian = system: OVCAR-3 ovarian
ACHN renal = system: ACHN renal
PC-3 prostate = system: PC-3 prostate
SK-MEL-5 melanoma = system: SK-MEL-5 melanoma
SR leukemia = system: SR leukemia
MDA-MB-435 = system: MDA-MB-435
SNB-19 CNS = system: SNB-19 CNS
HOP-62 NSCLC = system: HOP-62 NSCLC
UACC-62 melanoma = system: UACC-62 melanoma
SF-539 CNS = system: SF-539 CNS
KM12 colon = system: KM12 colon
SF-295 CNS = system: SF-295 CNS
CCRF-CEM leukemia = system: CCRF-CEM leukemia
SN12C renal = system: SN12C renal
OVCAR-8 ovarian = system: OVCAR-8 ovarian
BT-549 breast = system: BT-549 breast
OVCAR-5 ovarian = system: OVCAR-5 ovarian
A549 NSCLC = system: A549 NSCLC
SNB-75 CNS = system: SNB-75 CNS

O=c1c(F)cn(Cc2ccc(C34CC5CC(CC(C5)C3)C4)c(O)c2)c(=O)n1Cc1ccc(C23CC4CC(CC(C4)C2)C3)c(O)c1
GI50 (HOP-92 NSCLC): 12.4 µM | TGI (HOP-92 NSCLC): 28.7 µM | GI50 (UO-31 renal): 17.5 µM | TGI (UO-31 renal): 41.4 µM | GI50 (NCI-H226 lung): 12.9 µM | TGI (NCI-H226 lung): 26.1 µM | GI50 (SK-MEL-28 melanoma): 17.7 µM | TGI (SK-MEL-28 melanoma): 32.3 µM | GI50 (HT29 colon): 13.9 µM | TGI (HT29 colon): 29.9 µM | GI50 (NCI-H23 lung): 15.6 µM | TGI (NCI-H23 lung): 32 µM | GI50 (K-562 leukemia): 5.29 µM | TGI (K-562 leukemia): > 100 µM | GI50 (M14 melanoma): 18.4 µM | TGI (M14 melanoma): 45.3 µM | GI50 (MDA-MB-231 breast): 12.3 µM | TGI (MDA-MB-231 breast): 24.8 µM | GI50 (COLO 205 colon): 18 µM | TGI (COLO 205 colon): 37.5 µM | GI50 (MALME-3M melanoma): 14.8 µM | TGI (MALME-3M melanoma): 29.2 µM | GI50 (HS 578T breast): 11.5 µM | TGI (HS 578T breast): 56.4 µM | GI50 (HCT-116 colon): 11.1 µM | TGI (HCT-116 colon): 25 µM | GI50 (786-0 renal): 11.8 µM | TGI (786-0 renal): 28.3 µM | GI50 (MCF7 breast): 9.83 µM | TGI (MCF7 breast): 30.6 µM | GI50 (A498 renal): 14.2 µM | TGI (A498 renal): 27.5 µM | GI50 (SF-268 CNS): 12.8 µM | TGI (SF-268 CNS): 32.6 µM | GI50 (LOX IMVI melanoma): 6.98 µM | TGI (LOX IMVI melanoma): 20 µM | GI50 (RPMI-8226 leukemia): 15.4 µM | TGI (RPMI-8226 leukemia): 60.4 µM | GI50 (UACC-257 melanoma): 20.7 µM | TGI (UACC-257 melanoma): 50.7 µM | GI50 (TK-10 renal): 15.7 µM | TGI (TK-10 renal): 30 µM | GI50 (HCC-2998 colon): 17.8 µM | TGI (HCC-2998 colon): 33.2 µM | GI50 (RXF 393 renal): 6.5 µM | TGI (RXF 393 renal): > 100 µM | GI50 (DU-145 prostate): 8.59 µM | TGI (DU-145 prostate): 22.9 µM | GI50 (T-47D breast): 20.8 µM | TGI (T-47D breast): 51.6 µM | GI50 (MOLT-4 leukemia): 5.85 µM | TGI (MOLT-4 leukemia): 44.4 µM | GI50 (SK-OV-3 ovarian): 17.9 µM | TGI (SK-OV-3 ovarian): 33.1 µM | GI50 (EKVX NSCLC): 15.8 µM | TGI (EKVX NSCLC): 34.8 µM | GI50 (SW-620 colon): 10.7 µM | TGI (SW-620 colon): 26.4 µM | GI50 (HCT-15 colon): 13.6 µM | TGI (HCT-15 colon): 26.5 µM | GI50 (NCI/ADR-RES ovarian): 14.3 µM | TGI (NCI/ADR-RES ovarian): 28.9 µM | GI50 (OVCAR-4 ovarian): 14.8 µM | TGI (OVCAR-4 ovarian): 30.8 µM | GI50 (CAKI-1 renal): 17.5 µM | TGI (CAKI-1 renal): 31.6 µM | GI50 (SK-MEL-2 melanoma): 18.8 µM | TGI (SK-MEL-2 melanoma): 41.8 µM | GI50 (U251 CNS): 6.89 µM | TGI (U251 CNS): 19.5 µM | GI50 (NCI-H522 lung): 15.9 µM | TGI (NCI-H522 lung): 32.9 µM | GI50 (HL-60(TB) leukemia): 8.32 µM | TGI (HL-60(TB) leukemia): 54.2 µM | GI50 (NCI-H460 lung): 9.76 µM | TGI (NCI-H460 lung): 37.2 µM | GI50 (OVCAR-3 ovarian): 15.3 µM | TGI (OVCAR-3 ovarian): 29.2 µM | GI50 (ACHN renal): 13.5 µM | TGI (ACHN renal): 26.3 µM | GI50 (PC-3 prostate): 10.7 µM | TGI (PC-3 prostate): 24.2 µM | GI50 (SK-MEL-5 melanoma): 13.9 µM | TGI (SK-MEL-5 melanoma): 27 µM | GI50 (SR leukemia): 7.17 µM | TGI (SR leukemia): 26.5 µM | GI50 (MDA-MB-435): 14.4 µM | TGI (MDA-MB-435): 29.2 µM | GI50 (SNB-19 CNS): 27.5 µM | TGI (SNB-19 CNS): 57.1 µM | GI50 (HOP-62 NSCLC): 17.5 µM | TGI (HOP-62 NSCLC): 33.1 µM | GI50 (UACC-62 melanoma): 15.9 µM | TGI (UACC-62 melanoma): 29.5 µM | GI50 (SF-539 CNS): 11.5 µM | TGI (SF-539 CNS): 24.4 µM | GI50 (KM12 colon): 15.5 µM | TGI (KM12 colon): 32.8 µM | GI50 (SF-295 CNS): 16.9 µM | TGI (SF-295 CNS): 32.5 µM | GI50 (CCRF-CEM leukemia): 9.46 µM | TGI (CCRF-CEM leukemia): > 100 µM | GI50 (SN12C renal): 10.5 µM | TGI (SN12C renal): 22.3 µM | GI50 (OVCAR-8 ovarian): 14.5 µM | TGI (OVCAR-8 ovarian): 45.5 µM | GI50 (BT-549 breast): 13.1 µM | TGI (BT-549 breast): 31.3 µM | GI50 (OVCAR-5 ovarian): 13.5 µM | TGI (OVCAR-5 ovarian): 28.1 µM | GI50 (A549 NSCLC): 4.2 µM | TGI (A549 NSCLC): > 100 µM | GI50 (SNB-75 CNS): 15.1 µM | TGI (SNB-75 CNS): 30 µM
